# Patent US8450067B2, “Method for obtaining anti-idiotype antibodies” (Omrix Biopharmaceuticals Inc., priority 2002, dated 2013)
# What was measured:
# [1] = tested on: anti-anti-dsDNA (anti-Id) isolated from IVIG; test: Direct binding of anti-Id to the synthetic peptides by ELISA; design: species or system human; conditions: Table 2
# Protocol: (§1) The binding of anti-Id to the peptides was tested by ELISA.
# (§2) ELISA plates were coated by 10 ug/ml of peptides in PBS overnight at 4° C. The plates were blocked with 3% BSA for 1hr at 37° C. Anti-Id was added at different concentrations. IgG purified from one donor was used as negative control.
# (§3) The binding of the immunoglobulin was probed with goat anti-human IgG conjugated to alkaline phosphatase and the appropriate substrate. Between each step, extensive washings were performed with 0.05% PBS-Tween.
# (§4) The same protocol was used as above, but the peptides used in this study were taken from the literature except for peptide number 1 which is the first peptide in the previous experiment.
# [2] = tested on: control IgG (IgG purified from one donor); test: Direct binding ELISA, negative control immunoglobulin; design: species or system human; conditions: Table 2
# Protocol: as §1, §2, §3, §4
# [3] = tested on: immunoglobulin eluted from a peptide column bearing the peptide 706; test: ELISA of peptide column eluate with biotinylated peptides (706 column); assay type: binding, human; conditions: FIG. 3; biotinylated peptide 1 μg/ml
# Protocol: (§5) To measure the binding efficacy of peptide column eluates (706 and 707) the following ELISA was performed:
# (§6) Microtiter plates (Costar, USA) were coated overnight at 2-8° C. with 10 μg/ml NeutrAvidin (Pierce, USA) suspended in 0.1M, pH 8.8, of carbonate-bicarbonate buffer (Sigma USA). The coating solution was removed, washed three times with washing buffer (1×PBS) and 200 μl of blocking solution (freshly prepared 1% I Block, Tropix, USA) per well was added and incubated for 1 hour at 37° C. Coated and blocked plates can be stored at −20° C. for a month before use.
# (§7) Tested samples diluted in the blocking solution were mixed in a separate tube with 1 μg/ml (final concentration) of the appropriate biotinylated peptide and the mixture was incubated for 1 hour at 37° C. 100 μl from each reaction tube was then transferred to the blocked microtiter plate and incubated at 37° C. for ½ hour. A 100 μl of 1:5000 Alkaline Phosphatase conjugate goat anti human IgG (Heavy and light chain from Jackson, USA) diluted in the blocking buffer was applied into the microtiter well and incubated for 1 hour. […] The measurement was done photometrically at 405 nm.
# [4] = tested on: immunoglobulin elution peak from a peptide column bound with peptide 707; test: ELISA of peptide column eluate with biotinylated peptides (707 column); assay type: binding, human; conditions: FIG. 4; biotinylated peptide 1 μg/ml
# Protocol: as §5, §6, §7
Substance,binding of anti-Id to peptide (OD at 405 nm) ([1]; anti-Id 1 μg/ml),binding of anti-Id to peptide (OD at 405 nm) ([1]; anti-Id 2.5 μg/ml),binding of anti-Id to peptide (OD at 405 nm) ([1]; anti-Id 5 μg/ml),"binding of anti-Id to peptide (OD at 405 nm) ([1]; anti-Id 10 μg/ml, plates coated with 10 ug/ml peptide)",binding of control IgG to peptide (OD at 405 nm) ([2]; control IgG 1 μg/ml),binding of control IgG to peptide (OD at 405 nm) ([2]; control IgG 5 μg/ml),binding of 706 column eluate to biotinylated peptide [3],binding of 707 column eluate to biotinylated peptide [4]
DWLYSRS [Pep 13],0.112,0.099,0.387,0.748,0.069,0.078,,
"GIWELSKEPSQKVWQMYYGT [Pep R706, reverse order of CDR1, used as a control]",,,,,,,not,reacted even more strongly
